Results as given in patent US6355799B1, “Substituted benzene compounds, process for their preparation, and herbicidal and defoliant compositions containing them” (ISK Americas Incorporated, priority 1997, dated 2002).

How the values were obtained:
Format in all cases: in vivo
[1] = tested on: redroot pigweed (Amaranthus retroflexus, AMARE); assay: Pre-emerge test, greenhouse herbicide activity screening; settings: pre-emerge, rated 14 days after application, 0 = no damage, 100 = complete death
Procedure, shortened: (§1)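 Herbicidal damage is scored 0 (none) to 100 (complete plant death) two weeks after a simulated field spray. Rates span 15–1000 g ai/ha, delivered in acetone at 187 l/ha. For post-emergence treatments, plants have 2–3 leaves and the spray carries 0.25% v/v non-ionic surfactant.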

[2] = tested on: barnyardgrass (Echinochloa crus-galli, ECHCG); assay: as above; settings: pre-emerge, rated 14 days after application, 0 = no damage, 100 = complete death
Procedure, shortened: as §1

[3] = tested on: common ragweed (Ambrosia artemisizfolia L., AMBEL); assay: as above; settings: pre-emerge, rated 14 days after application, 0 = no damage, 100 = complete death
Procedure, shortened: as §1

[4] = tested on: green foxtail (Setaria viridis, SETVI); assay: as above; settings: pre-emerge, rated 14 days after application, 0 = no damage, 100 = complete death
Procedure, shortened: as §1

[5] = tested on: ivyleaf morningglory (Ipomoea hederacea, IPOHE); assay: as above; settings: pre-emerge, rated 14 days after application, 0 = no damage, 100 = complete death
Procedure, shortened: as §1

[6] = tested on: johnsongrass (Sorghum halepense, SORHA); assay: as above; settings: pre-emerge, rated 14 days after application, 0 = no damage, 100 = complete death
Procedure, shortened: as §1

[7] = tested on: lambsquarters (Chenopodium album, CHEAL); assay: as above; settings: pre-emerge, rated 14 days after application, 0 = no damage, 100 = complete death
Procedure, shortened: as §1

[8] = tested on: large crabgrass (Digitaria sanguinalis, DIGSA); assay: as above; settings: pre-emerge, rated 14 days after application, 0 = no damage, 100 = complete death
Procedure, shortened: as §1

[9] = tested on: sicklepod (Cassia obtusifolia, CASOB); assay: as above; settings: pre-emerge, rated 14 days after application, 0 = no damage, 100 = complete death
Procedure, shortened: as §1

[10] = tested on: velvetleaf (Abutilon theophrasti, ABUTH); assay: as above; settings: pre-emerge, rated 14 days after application, 0 = no damage, 100 = complete death
Procedure, shortened: as §1

[11] = tested on: field corn (Zea mays L., var. Dekalb 535, CORN); assay: Pre-emerge test, crop safety; settings: pre-emerge, rated 14 days after application, 0 = no damage, 100 = complete death
Procedure, shortened: (§2)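 Visual ratings on a 0-100 scale (0 no damage, 100 all plants dead) were taken at 14 days after treatment. Rates of 15-1000 g ai/ha in acetone, 187 l/ha, were sprayed onto soil one day after planting (pre-emerge) or onto 2-3 leaf plants with 0.25% v/v surfactant (post-emerge).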

[12] = tested on: upland rice (Oryza sp., var. Tebonnet, RICE); assay: Pre-emerge test, crop safety; settings: pre-emerge, rated 14 days after application, 0 = no damage, 100 = complete death
Procedure, shortened: as §2

[13] = tested on: barnyardgrass (Echinochloa crus-galli, ECHCG); assay: Post-emerge test, greenhouse herbicide activity screening; settings: phytotoxicity rating 0-100 (0 no damage, 100 complete death), 14 days after application
Procedure, shortened: (§3)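 Fourteen days after spraying, crop and weed injury was graded visually from 0, no effect, to 100, every plant dead. Test substances were dissolved in acetone and applied at 15–1000 g ai/ha with a flat-fan nozzle. Application was either pre-emergence, one day after sowing, or post-emergence at the 2–3 leaf stage.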

[14] = tested on: common ragweed (Ambrosia artemisizfolia L., AMBEL); assay: as above; settings: phytotoxicity rating 0-100 (0 no damage, 100 complete death), 14 days after application
Procedure, shortened: as §3

[15] = tested on: green foxtail (Setaria viridis, SETVI); assay: as above; settings: phytotoxicity rating 0-100 (0 no damage, 100 complete death), 14 days after application
Procedure, shortened: as §3

[16] = tested on: ivyleaf morningglory (Ipomoea hederacea, IPOHE); assay: as above; settings: phytotoxicity rating 0-100 (0 no damage, 100 complete death), 14 days after application
Procedure, shortened: as §3

[17] = tested on: johnsongrass (Sorghum halepense, SORHA); assay: as above; settings: phytotoxicity rating 0-100 (0 no damage, 100 complete death), 14 days after application
Procedure, shortened: as §3

[18] = tested on: lambsquarters (Chenopodium album, CHEAL); assay: as above; settings: phytotoxicity rating 0-100 (0 no damage, 100 complete death), 14 days after application
Procedure, shortened: as §3

[19] = tested on: large crabgrass (Digitaria sanguinalis, DIGSA); assay: as above; settings: phytotoxicity rating 0-100 (0 no damage, 100 complete death), 14 days after application
Procedure, shortened: as §3

[20] = tested on: redroot pigweed (Amaranthus retroflexus, AMARE); assay: as above; settings: phytotoxicity rating 0-100 (0 no damage, 100 complete death), 14 days after application
Procedure, shortened: as §3

[21] = tested on: sicklepod (Cassia obtusifolia, CASOB); assay: as above; settings: phytotoxicity rating 0-100 (0 no damage, 100 complete death), 14 days after application
Procedure, shortened: as §3

[22] = tested on: velvetleaf (Abutilon theophrasti, ABUTH); assay: as above; settings: phytotoxicity rating 0-100 (0 no damage, 100 complete death), 14 days after application
Procedure, shortened: as §3

[23] = tested on: field corn (Zea mays L., var. Dekalb 535, CORN); assay: Post-emerge test, crop safety; settings: phytotoxicity rating 0-100 (0 no damage, 100 complete death), 14 days after application
Procedure, shortened: as §1

[24] = tested on: upland rice (Oryza sp., var. Tebonnet, RICE); assay: Post-emerge test, crop safety; settings: phytotoxicity rating 0-100 (0 no damage, 100 complete death), 14 days after application
Procedure, shortened: as §1

In the case of `COc1c(Cl)cc(F)c(-n2c(=O)c(N)c(C(F)(F)F)n(C)c2=O)c1N` [Compound 1-10], the “Pre-emerge Herbicidal Activity AMARE (phytotoxicity rating, scale 0-100)” value ([1]; 63 g ai/ha) is reported as 70, the “Pre-emerge Herbicidal Activity AMARE (phytotoxicity rating, scale 0-100)” value ([1]; 250 g ai/ha) is reported as 100 and the “Pre-emerge Herbicidal Activity ECHCG (phytotoxicity rating, scale 0-100)” value ([2]; 63 g ai/ha) is reported as 0. For the same compound, the “Pre-emerge Herbicidal Activity ECHCG (phytotoxicity rating, scale 0-100)” value ([2]; 250 g ai/ha) was 0, the “Pre-emerge Herbicidal Activity AMBEL (phytotoxicity rating, scale 0-100)” value ([3]; 63 g ai/ha) was 0 and the “Pre-emerge Herbicidal Activity AMBEL (phytotoxicity rating, scale 0-100)” value ([3]; 250 g ai/ha) was 60. For the same compound, the “Pre-emerge Herbicidal Activity SETVI (phytotoxicity rating, scale 0-100)” value ([4]; 63 g ai/ha) was 0, the “Pre-emerge Herbicidal Activity SETVI (phytotoxicity rating, scale 0-100)” value ([4]; 250 g ai/ha) was 100 and the “Pre-emerge Herbicidal Activity IPOHE (phytotoxicity rating, scale 0-100)” value ([5]; 63 g ai/ha) was 0. The “Pre-emerge Herbicidal Activity IPOHE (phytotoxicity rating, scale 0-100)” value ([5]; 250 g ai/ha) was 60, the “Pre-emerge Herbicidal Activity SORHA (phytotoxicity rating, scale 0-100)” value ([6]; 63 g ai/ha) was 0 and the “Pre-emerge Herbicidal Activity SORHA (phytotoxicity rating, scale 0-100)” value ([6]; 250 g ai/ha) was 0. For the same compound, the “Pre-emerge Herbicidal Activity CHEAL (phytotoxicity rating, scale 0-100)” value ([7]; 63 g ai/ha) was 30, the “Pre-emerge Herbicidal Activity CHEAL (phytotoxicity rating, scale 0-100)” value ([7]; 250 g ai/ha) was 100 and the “Pre-emerge Herbicidal Activity DIGSA (phytotoxicity rating, scale 0-100)” value ([8]; 63 g ai/ha) was 0. For the same compound, the “Pre-emerge Herbicidal Activity DIGSA (phytotoxicity rating, scale 0-100)” value ([8]; 250 g ai/ha) was 30, the “Pre-emerge Herbicidal Activity CASOB (phytotoxicity rating, scale 0-100)” value ([9]; 63 g ai/ha) was 20 and the “Pre-emerge Herbicidal Activity CASOB (phytotoxicity rating, scale 0-100)” value ([9]; 250 g ai/ha) was 50. The “Pre-emerge Herbicidal Activity ABUTH (phytotoxicity rating, scale 0-100)” value ([10]; 63 g ai/ha) was 100, the “Pre-emerge Herbicidal Activity ABUTH (phytotoxicity rating, scale 0-100)” value ([10]; 250 g ai/ha) was 100 and the “Pre-emerge crop damage CORN (phytotoxicity rating, scale 0-100)” value ([11]; 63 g ai/ha) was 0. The “Pre-emerge crop damage CORN (phytotoxicity rating, scale 0-100)” value ([11]; 250 g ai/ha) was 0, the “Pre-emerge crop damage RICE (phytotoxicity rating, scale 0-100)” value ([12]; 63 g ai/ha) was 0 and the “Pre-emerge crop damage RICE (phytotoxicity rating, scale 0-100)” value ([12]; 250 g ai/ha) was 0. For the same compound, the “Post-emerge Herbicidal Activity ECHCG” value ([13]; 63 g ai/ha) was 0, the “Post-emerge Herbicidal Activity ECHCG” value ([13]; 250 g ai/ha) was 0 and the “Post-emerge Herbicidal Activity AMBEL” value ([14]; 63 g ai/ha) was 0. For the same compound, the “Post-emerge Herbicidal Activity AMBEL” value ([14]; 250 g ai/ha) was 30, the “Post-emerge Herbicidal Activity SETVI” value ([15]; 63 g ai/ha) was 0 and the “Post-emerge Herbicidal Activity SETVI” value ([15]; 250 g ai/ha) was 0. For the same compound, the “Post-emerge Herbicidal Activity IPOHE” value ([16]; 63 g ai/ha) was 20, the “Post-emerge Herbicidal Activity IPOHE” value ([16]; 250 g ai/ha) was 70 and the “Post-emerge Herbicidal Activity SORHA” value ([17]; 63 g ai/ha) was 0. For the same compound, the “Post-emerge Herbicidal Activity SORHA” value ([17]; 250 g ai/ha) was 0, the “Post-emerge Herbicidal Activity CHEAL” value ([18]; 63 g ai/ha) was 10 and the “Post-emerge Herbicidal Activity CHEAL” value ([18]; 250 g ai/ha) was 50. For the same compound, the “Post-emerge Herbicidal Activity DIGSA” value ([19]; 63 g ai/ha) was 0, the “Post-emerge Herbicidal Activity DIGSA” value ([19]; 250 g ai/ha) was 0 and the “Post-emerge Herbicidal Activity AMARE” value ([20]; 63 g ai/ha) was 10. The “Post-emerge Herbicidal Activity AMARE” value ([20]; 250 g ai/ha) was 30, the “Post-emerge Herbicidal Activity CASOB” value ([21]; 63 g ai/ha) was 0 and the “Post-emerge Herbicidal Activity CASOB” value ([21]; 250 g ai/ha) was 10. For the same compound, the “Post-emerge Herbicidal Activity ABUTH” value ([22]; 63 g ai/ha) was 30, the “Post-emerge Herbicidal Activity ABUTH” value ([22]; 250 g ai/ha) was 90 and the “Post-emerge Herbicidal Activity CORN (crop damage)” value ([23]; 63 g ai/ha) was 0. The “Post-emerge Herbicidal Activity CORN (crop damage)” value ([23]; 250 g ai/ha) was 0, the “Post-emerge Herbicidal Activity RICE (crop damage)” value ([24]; 63 g ai/ha) was 0 and the “Post-emerge Herbicidal Activity RICE (crop damage)” value ([24]; 250 g ai/ha) was 0.
